Measurements: patent US20220168296A1, “METHODS OF TREATING CANCER WITH FARNESYLTRANSFERASE INHIBITORS” (Kura Oncology, Inc., priority 2019, published 2022)

Columns and labels:
Assay type in all cases: in vivo, human
[1] = system: Mycosis Fungoides (MF); test: Phase II clinical study with tipifarnib in relapsed or refractory non-Hodgkin's lymphoma patients: MF subjects
Experimental: A Phase II clinical study with tipifarnib was performed in relapsed or refractory non-Hodgkin's lymphoma patients (N=93), wherein the types of non-Hodgkin's lymphoma included Diffuse Large B Cell Lymphoma (DLBCL) and Mycosis Fungoides (MF). Eligible patients received 300 mg tipifarnib as a single agent orally, twice a day (bid) on days 1-21 of 28 day cycles. Courses were repeated every 28 days in the absence of disease progression or unacceptable toxicity. Primary objective of assessing objective tumor response, in terms of Objective Response Rate (ORR), was determined using the International Workshop Criteria (IWC). […] CXCL12, CXCR4, CXCR7, and […]2, mRNA expression data were generated by RNASeq and expressed as RNA Seq RSEM.

[2] = system: relapsed or refractory Diffuse Large B Cell Lymphoma (DLBCL); test: Phase II clinical study with tipifarnib in relapsed or refractory non-Hodgkin's lymphoma patients: DLBCL subjects; design: key to Best Response: a partial response (PR); Stable disease (SD) can be defined as any response not meeting CR, PR, HI, or PD criteria; Progressive disease (PD) can be defined as either >50% increase in lymph node or circulating blast % from baseline, or new appearance of circulating blasts (on at least 2 consecutive occasions)
Experimental: (§1) A Phase II clinical study with tipifarnib was performed in relapsed or refractory non-Hodgkin's lymphoma patients (N=93), wherein the types of non-Hodgkin's lymphoma included Diffuse Large B Cell Lymphoma (DLBCL) and Mycosis Fungoides (MF). Eligible patients received 300 mg tipifarnib as a single agent orally, twice a day (bid) on days 1-21 of 28 day cycles. Courses were repeated every 28 days in the absence of disease progression or unacceptable toxicity. Primary objective of assessing objective tumor response, in terms of Objective Response Rate (ORR), was determined using the International Workshop Criteria (IWC).
Exclusion Criteria for this clinical study include: (a) pregnant women; (b) breastfeeding women; (c) men or women of childbearing potential or their sexual partners who are unwilling to employ adequate contraception (condoms, diaphragm, birth control pills, injections, intrauterine device [IUD], surgical sterilization, subcutaneous implants, or abstinence, etc.); (d) life-threatening illness (unrelated to tumor); (e) ongoing radiation therapy or radiation therapy ≤3 weeks prior to study registration unless the acute side effects associated with such therapy are resolved; (f) therapy with myelosuppressive chemotherapy, cytotoxic chemotherapy, or biologic therapy ≤3 weeks (6 weeks for nitrosourea or mitomycin C) or corticosteroids ≤2 weeks, prior to starting R11577; patients may be on corticosteroids or tapering off them up until the day they start R11577 as long as it is clear that they are not having a tumor response to the steroids or that the steroids would confuse the interpretation of response to R11577; patients may be receiving stable (not increased within the last month) chronic doses of corticosteroids with a maximum dose of 20 mg of prednisone per day if they are being given for disorders other than lymphoma such as rheumatoid arthritis, polymyalgia rheumatica, adrenal insufficiency, or intractable symptoms of lymphoma; (g) peripheral neuropathy ≥grade 3; (h) serious non-malignant disease such as active infection or other condition which in the opinion of the investigator would compromise other protocol objectives; (i) presence of central nervous system (CNS) lymphoma; (j) other active malignancies; (k) once a patient begins FTI (tipifarnib) treatment, the addition of other cancer treatment will confound the assessment of efficacy and therefore is not allowed; this restriction precludes the addition of cytotoxic, immunologic agents, radiotherapy, or an increase in corticosteroid dose while the patient is in the treatment phase of this protocol; (l) known to be human immunodeficiency virus (HIV) positive; HIV testing is not required but should be done if clinically indicated; HIV patients are excluded because of concerns regarding excess risk of complications of immunosuppressive therapy regimens; and (m) known allergy to imidazole drugs such as clotrimazole, ketoconazole, miconazole, econazole, fenticonazole, sulconazole, tioconazole, or terconazole.
Pre-treatment tumor samples and best response data were obtained from 20 patients (N=20): 6 Diffuse Large B Cell Lymphoma (DLBCL), 6 Hodgkin Lymphoma (HL), 4 Follicular Lymphoma (FL), 1 Marginal Zone B Cell Lymphoma, 1 PTCL NOS, and 2 Mycosis Fungoides (MF). Within these 20 patients, the following objective responses were identified: 3 PRs and 1 SD were reported in DLBCL, 1PR in HL, and 2PRs in MF.
CXCL12, CXCR4, CXCR7, and PRICLKE2, mRNA expression data were generated by RNASeq and expressed as RNA Seq RSEM.

[3] = system: Hodgkin Lymphoma (HL); test: Phase II clinical study with tipifarnib in relapsed or refractory lymphoma patients: HL subjects; settings: among 6 HL patients with pre-treatment tumor samples; 300 mg orally bid days 1-21 of 28 day cycles
Experimental: as §1, with “(IWC). […]” for “(IWC).”

[4] = among 6 DLBCL patients with pre-treatment tumor samples, 300 mg orally bid days 1-21 of 28 day cycles
[5] = high PRICKLE2 and CXCL12/CXCR4 ratio greater than about 1/10 (about 0.10), out of 6 subjects (FIG. 2B)
[6] = low PRICKLE2 and lower CXCL12/CXCR4 ratio, cut-off about 1/10 (about 0.10), out of 6 subjects (FIG. 2B)
[7] = low PRICKLE2 and lower CXCL12/CXCR4 ratio, cut-off about 3/20 (about 0.15), out of 6 subjects (FIG. 2B)
[8] = low pre-treatment CXCL12 expression levels, out of 6 subjects (FIG. 1A)
[9] = low pre-treatment PRICKLE2 expression levels, out of 6 subjects (FIG. 2A)

Cn1cncc1[C@@](N)(c1ccc(Cl)cc1)c1ccc2c(c1)c(-c1cccc(Cl)c1)cc(=O)n2C [tipifarnib]
PR: Best Response ([2]; DLBCL subject with pre-treatment tumor CXCL12/CXCR7 ratio 6.6, 300 mg orally bid days 1-21 of 28 day cycles) | Best Response ([2]; DLBCL subject with pre-treatment tumor CXCL12/CXCR7 ratio 30.8, 300 mg orally bid days 1-21 of 28 day cycles) | Best Response ([2]; DLBCL subject with pre-treatment tumor CXCL12/CXCR7 ratio 66.8, 300 mg orally bid days 1-21 of 28 day cycles) | Best Response ([2]; Patient 35, DLBCL, pre-treatment tumor CXCL12/CXCR4 ratio 1.280, 300 mg orally bid days 1-21 of 28 day cycles) | Best Response ([2]; Patient 38, DLBCL, pre-treatment tumor CXCL12/CXCR4 ratio 0.505, 300 mg orally bid days 1-21 of 28 day cycles) | Best Response ([2]; Patient 39, DLBCL, pre-treatment tumor CXCL12/CXCR4 ratio 0.179, 300 mg orally bid days 1-21 of 28 day cycles)
2: Number of PR responses ([1]; MF patients having high pre-treatment CXCL12 expression levels, out of 2 subjects) | Number of PRs (objective responses) ([1]; among 2 MF patients with pre-treatment tumor samples, 300 mg orally bid days 1-21 of 28 day cycles) | Number of PRs ([1]; two MF subjects with CXCL12/CXCR4 expression ratio of 0.6 and 2.0, out of 2 subjects) | Number of PD responses [2, 6] | Number of PD responses [2, 7] | Number of PD responses [2, 8] | Number of PD responses [2, 9]
3: Number of PRs (objective responses) [2, 4] | Number of PR responses [2, 5] | Number of PR responses ([2]; high PRICKLE2 and CXCL12/CXCR4 ratio greater than about 3/20 (about 0.15), out of 6 subjects (FIG. 2B)) | Number of PR responses ([2]; high pre-treatment CXCL12 expression levels, out of 6 subjects (FIG. 1A)) | Number of PR responses ([2]; high pre-treatment PRICKLE2 expression levels, out of 6 subjects (FIG. 2A))
1: Number of SD (objective responses) [2, 4] | Number of SD responses [2, 5] | Number of SD responses [2, 7] | Number of SD responses [2, 8] | Number of SD responses [2, 9] | Number of PR (objective responses) [3]
PD: Best Response ([2]; DLBCL subject with pre-treatment tumor CXCL12/CXCR7 ratio 1.4, 300 mg orally bid days 1-21 of 28 day cycles) | Best Response ([2]; DLBCL subject with pre-treatment tumor CXCL12/CXCR7 ratio 3.5, 300 mg orally bid days 1-21 of 28 day cycles) | Best Response ([2]; Patient 43, DLBCL, pre-treatment tumor CXCL12/CXCR4 ratio 0.050, 300 mg orally bid days 1-21 of 28 day cycles) | Best Response ([2]; Patient 44, DLBCL, pre-treatment tumor CXCL12/CXCR4 ratio 0.012, 300 mg orally bid days 1-21 of 28 day cycles)
0: Number of PR responses ([1]; MF, low pre-treatment CXCL12 expression levels, out of 2 subjects) | Number of PR responses [2, 6] | Number of SD responses [2, 6] | Number of PR responses [2, 7] | Number of PR responses [2, 8] | Number of PR responses [2, 9]
SD: Best Response ([2]; DLBCL subject with pre-treatment tumor CXCL12/CXCR7 ratio 3.7, 300 mg orally bid days 1-21 of 28 day cycles) | Best Response ([2]; Patient 42, DLBCL, pre-treatment tumor CXCL12/CXCR4 ratio 0.122, 300 mg orally bid days 1-21 of 28 day cycles)
